Reference: paper PMC7075836 (European Journal of Nuclear Medicine and Molecular Imaging, 2020)

What was measured:
α8β1 = molecular target: T1, α8β1 (Homo sapiens, UniProt P05556+P53708); assay: biochemical; details: read-out: inhibition of binding
T1 construct: incubating a small molecule RGD-mimetic-tritiated radioligand with soluble integrin protein

α5β1 = molecular target: T2, α5β1 (Homo sapiens, UniProt P05556+P08648); assay: biochemical; details: read-out: inhibition of binding
T2 construct: incubating a small molecule RGD-mimetic-tritiated radioligand with soluble integrin protein
T2 sequence (P08648 42-995 limits assumed): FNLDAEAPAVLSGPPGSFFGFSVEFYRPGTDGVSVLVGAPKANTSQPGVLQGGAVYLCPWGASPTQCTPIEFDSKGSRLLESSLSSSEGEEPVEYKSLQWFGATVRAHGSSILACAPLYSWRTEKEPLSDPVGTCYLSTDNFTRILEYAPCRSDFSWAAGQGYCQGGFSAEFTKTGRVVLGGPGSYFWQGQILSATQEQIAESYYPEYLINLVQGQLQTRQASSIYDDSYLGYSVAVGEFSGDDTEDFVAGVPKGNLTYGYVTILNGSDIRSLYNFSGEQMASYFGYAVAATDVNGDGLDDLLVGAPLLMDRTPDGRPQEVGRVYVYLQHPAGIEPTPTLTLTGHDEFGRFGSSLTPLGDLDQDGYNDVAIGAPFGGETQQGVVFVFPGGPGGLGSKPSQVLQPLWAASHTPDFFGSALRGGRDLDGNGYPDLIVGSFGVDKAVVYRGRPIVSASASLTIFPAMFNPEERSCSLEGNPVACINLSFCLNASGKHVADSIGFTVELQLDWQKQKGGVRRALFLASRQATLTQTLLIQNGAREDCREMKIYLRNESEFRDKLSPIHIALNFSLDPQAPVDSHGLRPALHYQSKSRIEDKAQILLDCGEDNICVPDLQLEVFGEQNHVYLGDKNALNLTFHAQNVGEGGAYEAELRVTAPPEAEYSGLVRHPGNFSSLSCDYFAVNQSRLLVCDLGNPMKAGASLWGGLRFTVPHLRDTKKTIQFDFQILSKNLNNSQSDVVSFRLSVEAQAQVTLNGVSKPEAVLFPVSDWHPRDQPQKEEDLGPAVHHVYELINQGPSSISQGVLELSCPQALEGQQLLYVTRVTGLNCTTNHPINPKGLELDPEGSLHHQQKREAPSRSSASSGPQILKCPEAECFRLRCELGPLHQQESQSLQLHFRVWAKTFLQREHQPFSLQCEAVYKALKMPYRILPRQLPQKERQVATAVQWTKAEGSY
T2 sequence (P05556 21-728 limits assumed): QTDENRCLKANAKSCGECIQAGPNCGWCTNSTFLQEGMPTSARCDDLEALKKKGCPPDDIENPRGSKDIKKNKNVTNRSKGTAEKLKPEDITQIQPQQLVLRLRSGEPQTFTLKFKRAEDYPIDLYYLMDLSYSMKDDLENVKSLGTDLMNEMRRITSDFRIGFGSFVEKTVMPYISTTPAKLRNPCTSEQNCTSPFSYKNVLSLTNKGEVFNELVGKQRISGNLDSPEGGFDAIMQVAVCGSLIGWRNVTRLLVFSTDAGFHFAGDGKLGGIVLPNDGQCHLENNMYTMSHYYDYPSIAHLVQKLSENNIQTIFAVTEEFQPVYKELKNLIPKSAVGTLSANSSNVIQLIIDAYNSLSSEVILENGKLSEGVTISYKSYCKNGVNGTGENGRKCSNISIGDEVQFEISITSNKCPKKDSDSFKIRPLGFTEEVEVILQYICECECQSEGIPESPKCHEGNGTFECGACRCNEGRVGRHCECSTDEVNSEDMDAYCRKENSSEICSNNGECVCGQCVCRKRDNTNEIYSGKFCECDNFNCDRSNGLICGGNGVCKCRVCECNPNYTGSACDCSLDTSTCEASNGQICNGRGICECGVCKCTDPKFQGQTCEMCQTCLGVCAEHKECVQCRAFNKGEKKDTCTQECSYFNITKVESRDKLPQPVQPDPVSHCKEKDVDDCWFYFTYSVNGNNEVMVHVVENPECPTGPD

T1 sequence (P53708 39-1012 limits assumed): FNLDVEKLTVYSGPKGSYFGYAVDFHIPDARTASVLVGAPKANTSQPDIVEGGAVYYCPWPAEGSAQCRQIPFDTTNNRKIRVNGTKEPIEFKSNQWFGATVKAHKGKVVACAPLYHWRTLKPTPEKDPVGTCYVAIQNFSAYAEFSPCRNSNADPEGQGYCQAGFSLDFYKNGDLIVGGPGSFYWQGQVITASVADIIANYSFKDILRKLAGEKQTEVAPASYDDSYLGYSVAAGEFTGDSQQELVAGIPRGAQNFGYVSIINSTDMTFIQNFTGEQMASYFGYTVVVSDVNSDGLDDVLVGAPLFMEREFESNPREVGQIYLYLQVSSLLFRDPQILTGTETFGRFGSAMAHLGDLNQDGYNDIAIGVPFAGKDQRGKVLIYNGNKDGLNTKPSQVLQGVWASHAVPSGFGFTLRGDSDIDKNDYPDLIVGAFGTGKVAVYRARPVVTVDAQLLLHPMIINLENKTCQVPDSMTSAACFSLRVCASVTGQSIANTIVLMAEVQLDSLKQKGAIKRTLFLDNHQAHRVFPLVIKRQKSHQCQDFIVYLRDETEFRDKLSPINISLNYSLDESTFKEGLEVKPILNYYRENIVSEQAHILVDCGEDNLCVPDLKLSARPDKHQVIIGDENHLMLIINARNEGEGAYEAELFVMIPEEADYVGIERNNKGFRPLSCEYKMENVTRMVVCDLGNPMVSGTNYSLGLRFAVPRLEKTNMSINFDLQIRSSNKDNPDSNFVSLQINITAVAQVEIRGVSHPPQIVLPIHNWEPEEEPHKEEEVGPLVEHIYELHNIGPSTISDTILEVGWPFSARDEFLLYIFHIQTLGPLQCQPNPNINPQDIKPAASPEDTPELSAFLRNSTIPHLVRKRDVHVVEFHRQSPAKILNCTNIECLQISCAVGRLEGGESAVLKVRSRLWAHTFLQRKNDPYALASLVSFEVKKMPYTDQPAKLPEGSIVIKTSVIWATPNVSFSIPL
T1 sequence (P05556 21-728 limits assumed): as the sequence (P05556 21-728 limits assumed) above

Which inhibition at 1 µM (α8β1) does the source give for `CC(C)C[C@H](NC(=O)[C@H](CC(=O)O)NC(=O)CNC(=O)[C@H](CCCNC(=N)N)NC(=O)[C@H](CC(C)C)NC(=O)[C@H](CC(N)=O)NC(=O)[C@@H]1CCCN1C(=O)[C@@H](NC(=O)[C@H](C)NC(=O)[C@@H](N)CC(N)=O)C(C)C)C(=O)N[C@@H](CCC(N)=O)C(=O)N[C@H](C(=O)N[C@@H](CC(C)C)C(=O)N[C@@H](C)C(=O)N[C@@H](CCC(N)=O)C(=O)N[C@@H](CCCCN)C(=O)N[C@H](C(=O)N[C@@H](C)C(=O)N[C@@H](CCCNC(=N)N)C(=O)N[C@H](C(N)=O)[C@@H](C)O)C(C)C)C(C)C` [A20FMDV2] here?
Its inhibition at 1 µM is < 50%.

What about the inhibition at 1 µM (α5β1) of the same molecule?
Its inhibition at 1 µM is < 50%.
